Results on 31 compounds are retold here after patent publication US6335339B1, “Triazine antiviral compounds” (Scriptgen Pharmaceuticals, Inc., priority 1998, dated 2002).

Structures are written as SMILES.

One assay concerns HIV derived RRE RNA. Put plainly: heterologous hybridization inhibition assay with RRE RNA. It is filed as binding. Conditions: radiolabeled RRE RNA, rRNA competitor.
For the next assay, the system named is HBV εRNA. Put plainly: εRNA/oligonucleotide hybridization inhibition assay with rRNA competitor. It is filed as binding, Hepatitis B virus. Conditions: for IC50 / HBV + rRNA IC50 (μM): radiolabeled εRNA, 60-fold excess rRNA competitor; for Specificity: ratio RRE+rRNA IC50/εRNA+rRNA IC50, max = inactive in RRE assay. Summed up: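 Inhibition of hybridization between 25 nM [32P]-εRNA and 100 nM biotinylated complementary oligonucleotide (50 mM Tris-HCl pH 7.5, 200 mM KCl, 5 mM MgCl2, 60 min, 25 °C), hybrids captured by streptavidin filter and counted. Titrations 0.1-200 μM with 60-fold excess rRNA; specificity = RRE+rRNA IC50/εRNA+rRNA IC50.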

For orientation: IC50 means the concentration that gives 50% inhibition.

For `COc1c(C=NNc2nc(Nc3ccccc3)nc(Nc3ccccc3)n2)ccc(Br)c1O` [Compound 168], in the assay on HIV derived RRE RNA, the “RRE + rRNA IC50 (μM)” value is “inactive”. In the assay on HBV εRNA, the half-maximal inhibitory concentration (IC50) is 19.7 µM and the Specificity result is recorded as “max”.
As for `Cc1ccc(Nc2nc(NN=Cc3ccccc3)nc(Nc3ccccc3)n2)cc1` [Compound 25], the “RRE + rRNA IC50 (μM)” value with HIV derived RRE RNA is “inactive”. Besides, in the assay with HBV εRNA, the IC50 was found to be 11.9 µM and the Specificity result is on record as “max”.
Regarding `CCCCN(CCCC)c1nc(NN=Cc2ccc([N+](=O)[O-])cc2)nc(Nc2ccc([N+](=O)[O-])cc2)n1` [Compound 5], in the assay on HIV derived RRE RNA, the “RRE + rRNA IC50 (μM)” value was “inactive”. In addition, in the assay with HBV εRNA, the half-maximal inhibitory concentration (IC50) amounted to 49.3 µM and the Specificity result is “max”.
In the same order, the values of `CCN(CC)c1nc(NN=Cc2ccc(Cl)c([N+](=O)[O-])c2)nc(Nc2cc(C)ccc2C)n1` [Compound 214] are “inactive”, 42.6 µM and “max”.
Take `Cc1ccccc1Nc1nc(NN=Cc2ccc(I)cc2)nc(Nc2ccc([N+](=O)[O-])cc2)n1` [Compound 10]: the “RRE + rRNA IC50 (μM)” value with HIV derived RRE RNA was “inactive”. Moreover, in the assay on HBV εRNA, the IC50 was 12 µM and the Specificity entry was “max”.
In the same order, the values of `Oc1ccc2ccccc2c1C=NNc1nc(Nc2cccc3ccccc23)nc(N2CCOCC2)n1` [Compound 167] are “inactive”, 50.9 µM and “max”.
For `Cc1ccc(Nc2nc(Nc3cccc(C(F)(F)F)c3)nc(N3CCOCC3)n2)cc1C` [Compound 251], the “RRE + rRNA IC50 (μM)” value in the assay on HIV derived RRE RNA is “inactive”. In the assay with HBV εRNA, the half-maximal inhibitory concentration (IC50) is 45 µM and the Specificity entry was “max”.
Consider `Cc1ccc(Nc2nc(NN=Cc3ccc(Cl)cc3)nc(N3CCOCC3)n2)cc1` [Compound 249], for which the “RRE + rRNA IC50 (μM)” value in the assay with HIV derived RRE RNA is “inactive”. In the assay on HBV εRNA, the IC50 was found to be 47.2 µM and the Specificity entry is “max”.
On to `COc1ccc(C=NNc2nc(NCc3ccccc3)nc(Nc3ccccc3)n2)cc1` [Compound 165], for which, in the assay on HIV derived RRE RNA, the “RRE + rRNA IC50 (μM)” value is “inactive”. Further, in the assay with HBV εRNA, the half-maximal inhibitory concentration (IC50) turned out to be 18.8 µM and the Specificity result was “max”.
In the case of `FC(F)(F)c1cccc(Nc2nc(NN=Cc3ccc(Cl)cc3)nc(N3CCOCC3)n2)c1` [Compound 120], the IC50 with HIV derived RRE RNA was 1110 µM. Also, in the assay with HBV εRNA, the IC50 was 46 µM and the Specificity is 24.1.
Consider `CCCCN(CCCC)c1nc(NN=Cc2ccc(Cl)cc2)nc(Nc2ccc([N+](=O)[O-])cc2)n1` [Compound 16], for which the “RRE + rRNA IC50 (μM)” value with HIV derived RRE RNA was “inactive”. Further, in the assay with HBV εRNA, the IC50 was 12.1 µM and the Specificity entry is given as “max”.
Turning to `COc1ccc(Nc2nc(NN=Cc3ccc(O)cc3O)nc(Nc3ccccc3)n2)cc1` [Compound 158], the “RRE + rRNA IC50 (μM)” value in the assay on HIV derived RRE RNA is “inactive”. In the assay with HBV εRNA, the IC50 is 7.4 µM and the Specificity result is reported as “max”.
Take `Cc1ccc(C=NNc2nc(Nc3ccc([N+](=O)[O-])cc3)nc(Nc3ccccc3C)n2)cc1` [Compound 15]: the “RRE + rRNA IC50 (μM)” value in the assay with HIV derived RRE RNA was “inactive”. For the same compound, in the assay on HBV εRNA, the IC50 was found to be 11 µM and the Specificity result is “max”.
In the same order, the values of `COc1ccc(Nc2nc(NCc3cccc([N+](=O)[O-])c3)nc(NCc3cc(F)ccc3F)n2)cc1OC` [Compound 225] are “inactive”, 193 µM and “max”.
With `CN(C)c1nc(NCc2ccccc2)nc(NCc2cccs2)n1` [Compound 192], the “RRE + rRNA IC50 (μM)” value in the assay on HIV derived RRE RNA is “inactive”. Besides, in the assay on HBV εRNA, the IC50 was determined as 235 µM and the Specificity result was “max”.
In the case of `Cc1ccc(Nc2nc(NCc3ccccc3)nc(Nc3ccc([N+](=O)[O-])cc3)n2)cc1C` [Compound 194], the “RRE + rRNA IC50 (μM)” value with HIV derived RRE RNA was “inactive”. In addition, in the assay with HBV εRNA, the IC50 was 34 µM and the Specificity result is reported as “max”.
Take `COc1cccc(C=NNc2nc(Nc3ccccc3)nc(N3CCCC3)n2)c1O` [Compound 170]: in the assay with HIV derived RRE RNA, the IC50 came out at 740 µM. In addition, in the assay on HBV εRNA, the IC50 was 6.2 µM and the Specificity was 119.3.
Consider `COc1ccc(Nc2nc(NCCc3ccccc3)nc(N(C)C)n2)cc1OC` [Compound 252], for which the “RRE + rRNA IC50 (μM)” value with HIV derived RRE RNA was “inactive”. Moreover, the “HBV + rRNA IC50 (μM)” value in the assay on HBV εRNA was “inactive”.
In the case of `O=[N+]([O-])c1ccc(Nc2nc(NCc3ccccc3)nc(N3CCOCC3)n2)cc1` [Compound 231], the “RRE + rRNA IC50 (μM)” value with HIV derived RRE RNA is “inactive”. Besides, in the assay with HBV εRNA, the half-maximal inhibitory concentration (IC50) came to 195 µM and the Specificity entry is recorded as “max”.
`CCCCN(CCCC)c1nc(N/N=C/c2cc(I)cc(I)c2O)nc(Nc2ccc([N+](=O)[O-])cc2)n1` [Compound 8]: in the assay on HIV derived RRE RNA, the “RRE + rRNA IC50 (μM)” value was “inactive”. For the same compound, in the assay on HBV εRNA, the IC50 was found to be 4 µM and the Specificity result is given as “max”.
As for `COc1c(C=NNc2nc(N3CCCC3)nc(N3CCOCC3)n2)cccc1[N+](=O)[O-]` [Compound 193], the “RRE + rRNA IC50 (μM)” value with HIV derived RRE RNA was “inactive”. Further, in the assay with HBV εRNA, the 50% inhibitory concentration (IC50) is 28 µM and the Specificity entry is recorded as “max”.
As for `Cc1ccc(Nc2nc(NN=Cc3ccccc3O)nc(Nc3ccc([N+](=O)[O-])cc3)n2)cc1C` [Compound 12], in the assay on HIV derived RRE RNA, the “RRE + rRNA IC50 (μM)” value was “inactive”. Also, in the assay with HBV εRNA, the IC50 was 2.6 µM and the Specificity result is “max”.
As to `Cc1ccc(Nc2nc(NN=Cc3cccc(I)c3)nc(Nc3ccccc3)n2)cc1` [Compound 30], the “RRE + rRNA IC50 (μM)” value with HIV derived RRE RNA is “inactive”. For the same compound, in the assay on HBV εRNA, the 50% inhibitory concentration (IC50) turned out to be 25 µM and the Specificity result is recorded as “max”.
Take `Oc1ccc(Br)cc1C=NNc1nc(Nc2cccc(C(F)(F)F)c2)nc(N2CCOCC2)n1` [Compound 246]: the “RRE + rRNA IC50 (μM)” value in the assay on HIV derived RRE RNA is “inactive”. Further, in the assay with HBV εRNA, the half-maximal inhibitory concentration (IC50) is 5.6 µM and the Specificity result was “max”.
Taken in the same sequence, the figures for `CCN(CC)c1nc(Nc2cccc(Br)c2)nc(Nc2cc(C)ccc2C)n1` [Compound 202] were “inactive”, 68 µM and “max”.
For `Cc1ccc(Nc2nc(NCc3ccccc3)nc(NN=Cc3cc(Cl)ccc3O)n2)cc1C` [Compound 226], the concentration for half-maximal inhibition (IC50) in the assay on HIV derived RRE RNA is 422 µM. In addition, in the assay with HBV εRNA, the 50% inhibitory concentration (IC50) was found to be 84.4 µM and the Specificity was 5.0.
With `Cc1ccc(Nc2nc(NNC(=O)c3ccccc3O)nc(Oc3ccc([N+](=O)[O-])cc3)n2)cc1C` [Compound 250], in the assay with HIV derived RRE RNA, the “RRE + rRNA IC50 (μM)” value is “inactive”. Moreover, in the assay with HBV εRNA, the “HBV + rRNA IC50 (μM)” value was “inactive”.
As to `Ic1cccc(C=NNc2nc(Nc3ccc4ccccc4c3)nc(N3CCOCC3)n2)c1` [Compound 166], in the assay on HIV derived RRE RNA, the “RRE + rRNA IC50 (μM)” value was “inactive”. In the assay on HBV εRNA, the half-maximal inhibitory concentration (IC50) amounted to 36.3 µM and the Specificity result is “max”.
For `CCN(CC)c1nc(NCc2ccccc2)nc(N/N=C/c2ccccc2O)n1` [Compound 155, 2-hydroxybenzaldehyde N-[4-(benzylamino)-6-(diethylamino)-1,3,5-triazin-2-yl]hydrazone], in the assay with HIV derived RRE RNA, the “RRE + rRNA IC50 (μM)” value was “inactive”. In the assay on HBV εRNA, the IC50 was determined as 25.5 µM and the Specificity entry is listed as “max”.
In the same order, the values of `Oc1ccc(Br)cc1C=NNc1nc(Nc2cccc(Br)c2)nc(N2CCOCC2)n1` [Compound 232] are “inactive”, 45.5 µM and “max”.
As to `COc1ccc(Nc2nc(NN=Cc3ccc(O)cc3O)nc(N3CCOCC3)n2)cc1` [Compound 164], the “RRE + rRNA IC50 (μM)” value in the assay with HIV derived RRE RNA is “inactive”. Besides, in the assay with HBV εRNA, the concentration for half-maximal inhibition (IC50) was 48 µM and the Specificity result was “max”.
